Results as given in DBAASP.
≈ marks a conversion by molar mass, not a printed value. One block for each compound: values may come before it.

Tests used:
Test in all cases: ≥ marks a high value that may be exact or a test limit, other limits are often not marked, values filed in µg/mL are converted to µM
[1] = tested on: Candida albicans ATCC 90028
[2] = tested on: Escherichia coli ATCC 25726
[3] = tested on: Staphylococcus aureus ATCC 25923
[4] = tested on: Bacillus subtilis KCTC 3068
[5] = tested on: Escherichia coli KCTC 1682
[6] = tested on: Pseudomonas aeruginosa KCTC 1637
[7] = tested on: Salmonella typhimurium KCTC 1926
[8] = tested on: Staphylococcus aureus KCTC 1621
[9] = tested on: Staphylococcus epidermidis KCTC 1917
[10] = tested on: Micrococcus luteus ATCC 9341
[11] = tested on: Escherichia coli DH5alpha
Klebsiella pneumoniae = tested on: Klebsiella pneumoniae
Pseudomonas aeruginosa = tested on: Pseudomonas aeruginosa
Salmonella typhimurium = tested on: Salmonella typhimurium
[12] = tested on: Staphylococcus aureus NCTC 10788
[13] = tested on: Escherichia coli ATCC 25922
[14] = tested on: Staphylococcus aureus ATCC 33591

Structure (SMILES): CC[C@H](C)[C@H](NC(=O)[C@@H](NC(=O)[C@@H](NC(=O)CNC(=O)[C@H](C)NC(=O)[C@@H](NC(=O)[C@H](CC(N)=O)NC(=O)[C@@H](NC(=O)[C@H](C)NC(=O)[C@H](CC(C)C)NC(=O)[C@H](CC(N)=O)NC(=O)[C@H](CCCCN)NC(=O)[C@H](Cc1ccccc1)NC(=O)[C@@H](NC(=O)[C@H](CO)NC(=O)[C@H](CC(C)C)NC(=O)[C@H](CC(C)C)NC(=O)CN)[C@@H](C)O)[C@@H](C)O)C(C)C)[C@@H](C)O)C(C)C)C(=O)N[C@@H](CC(=O)O)C(=O)N[C@H](C(=O)N[C@@H](CC(C)C)C(=O)N[C@@H](CCCCN)C(=O)N[C@H]1CSSC[C@@H](C(=O)N[C@@H](CCCN=C(N)N)C(=O)N[C@H](C(=O)O)[C@@H](C)O)NC(=O)CNC(=O)CNC(=O)[C@H]([C@@H](C)O)NC(=O)[C@H](C(C)C)NC(=O)[C@H](CCCCN)NC1=O)[C@@H](C)O [GLLSTFKNLATNVAGTVIDTLKCKVTGGCRT]
MIC [1]: ≥ 80 µM
MIC [2]: ≥ 80 µM
MIC [3]: > 80 µM

Structure (SMILES): CC[C@H](C)[C@H](NC(=O)[C@H](CC(C)C)NC(=O)[C@H](Cc1cnc[nH]1)NC(=O)[C@@H]1CCCN1C(=O)[C@@H](NC(=O)[C@@H](NC(=O)[C@H](CCCCN)NC(=O)[C@H](C)NC(=O)[C@@H](NC(=O)CNC(=O)[C@H](CCCCN)NC(=O)[C@H](CC(C)C)NC(=O)CNC(=O)[C@H](CC(C)C)NC(=O)[C@H](CCCCN)NC(=O)[C@H](CC(C)C)NC(=O)[C@H](CC(C)C)NC(=O)[C@@H]1CCCN1C(=O)CNC(=O)[C@H](CC(C)C)NC(=O)[C@H](Cc1ccccc1)NC(=O)CN)C(C)C)C(C)C)[C@@H](C)CC)C(=O)N1CCC[C@H]1C(=O)N[C@@H](CO)C(=O)N[C@@H](CCCN=C(N)N)C(=O)N[C@@H](CCC(N)=O)C(=O)N[C@@H](CCC(N)=O)C(=O)O [GFLGPLLKLGLKGVAKVIPHLIPSRQQ]
MIC [2]: ≥ 40 µM
MIC [3]: 2.5 µM (≈ 7.2 µg/mL)

Structure (SMILES): CC[C@H](C)[C@H](N)C(=O)N[C@@H](CC(C)C)C(=O)N1CCC[C@H]1C(=O)N[C@@H](Cc1c[nH]c2ccccc12)C(=O)N[C@@H](CCCCN)C(=O)N[C@@H](CCCCN)C(=O)N1CCC[C@H]1C(=O)N[C@@H](CCCCN)C(=O)N[C@@H](CCCCN)C(=O)N1CCC[C@H]1C(=O)N[C@@H](Cc1c[nH]c2ccccc12)C(=O)N[C@@H](CCCN=C(N)N)C(=O)N[C@@H](CCCN=C(N)N)C(N)=O [ILPWKKPKKPWRR]
MIC [4]: 5.77 µM (≈ 9.99 µg/mL)
MIC [5]: 2.88 µM (≈ 5 µg/mL)
MIC [6]: 11.5 µM (≈ 20 µg/mL)
MIC [7]: 5.77 µM (≈ 9.99 µg/mL)
MIC [8]: 5.77 µM (≈ 9.99 µg/mL)
MIC [9]: 2.88 µM (≈ 5 µg/mL)

Structure (SMILES): CC[C@H](C)[C@H](N)C(=O)N[C@@H](CC(C)C)C(=O)N[C@@H](C)C(=O)N[C@@H](Cc1c[nH]c2ccccc12)C(=O)N[C@@H](CCCCN)C(=O)N[C@@H](Cc1c[nH]c2ccccc12)C(=O)N[C@@H](C)C(=O)N[C@@H](Cc1c[nH]c2ccccc12)C(=O)N[C@@H](Cc1c[nH]c2ccccc12)C(=O)N1CCC[C@H]1C(=O)N[C@@H](Cc1c[nH]c2ccccc12)C(=O)N[C@@H](CCCN=C(N)N)C(=O)N[C@@H](CCCN=C(N)N)C(N)=O [ILAWKWAWWPWRR]
MIC [11]: 15 µM (≈ 27.8 µg/mL)
MIC (Klebsiella pneumoniae): 25 µM (≈ 46.4 µg/mL)
MIC (Pseudomonas aeruginosa): 100 µM (≈ 185 µg/mL)
MIC (Salmonella typhimurium): 25 µM (≈ 46.4 µg/mL)

Structure (SMILES): CC(C)C[C@H](NC(=O)[C@H](CC(C)C)NC(=O)CNC(=O)[C@H](C)NC(=O)[C@H](CC(C)C)NC(=O)[C@H](CC(C)C)NC(=O)CNC(=O)[C@@H]1CCCN1C(=O)[C@H](CC(C)C)NC(=O)[C@@H](N)Cc1ccccc1)C(N)=O [FLPGLLAGLL]
MIC [12]: ≥ 60 µM

Structure (SMILES): CC[C@H](C)[C@H](N)C(=O)N[C@@H](CC(C)C)C(=O)N1CCC[C@H]1C(=O)N[C@@H](Cc1c[nH]c2ccccc12)C(=O)N[C@@H](CCCN=C(N)N)C(=O)N[C@@H](Cc1c[nH]c2ccccc12)C(=O)N1CCC[C@H]1C(=O)N[C@@H](Cc1c[nH]c2ccccc12)C(=O)N[C@@H](Cc1c[nH]c2ccccc12)C(=O)N1CCC[C@H]1C(=O)N[C@@H](Cc1c[nH]c2ccccc12)C(=O)N[C@@H](CCCN=C(N)N)C(=O)N[C@@H](CCCN=C(N)N)C(N)=O [ILPWRWPWWPWRR]
MIC [10]: 0.4 µM (≈ 0.774 µg/mL)

Structure (SMILES): CC[C@H](C)[C@H](N)C(=O)N[C@@H](CC(C)C)C(=O)N1CCC[C@H]1C(=O)N[C@@H](Cc1c[nH]c2ccccc12)C(=O)N[C@@H](C)C(=O)N[C@@H](Cc1c[nH]c2ccccc12)C(=O)N1CCC[C@H]1C(=O)N[C@@H](Cc1c[nH]c2ccccc12)C(=O)N[C@@H](Cc1c[nH]c2ccccc12)C(=O)N1CCC[C@H]1C(=O)N[C@@H](Cc1c[nH]c2ccccc12)C(=O)N[C@@H](CCCN=C(N)N)C(=O)N[C@@H](CCCN=C(N)N)C(N)=O [ILPWAWPWWPWRR]
MIC [10]: 0.8 µM (≈ 1.48 µg/mL)

Structure (SMILES): CC[C@H](C)[C@H](N)C(=O)N[C@H](C(=O)N[C@H](C(=O)N1CCC[C@H]1C(=O)N1CCC[C@H]1C(=O)N[C@H](C(=O)N[C@H](C(=O)N[C@@H](CCCCN)C(=O)N[C@@H](CC(=O)O)C(=O)N[C@H](C(=O)N[C@@H](CC(C)C)C(=O)N[C@@H](CCCCN)C(=O)N[C@@H](CCCCN)C(=O)N[C@@H](Cc1ccccc1)C(=O)N[C@H](C(=O)N[C@@H](CCCCN)C(=O)NCC(=O)N[C@@H](C)C(=O)N[C@H](C(=O)N[C@@H](CO)C(=O)NCC(=O)N[C@H](C(=O)N[C@@H](CCSC)C(N)=O)C(C)C)[C@@H](C)CC)[C@@H](C)CC)[C@@H](C)O)C(C)C)[C@@H](C)CC)[C@@H](C)CC)[C@@H](C)O [ITIPPIVKDTLKKFIKGAISGVM]
MIC [2]: ≥ 80 µM
MIC [3]: 20 µM (≈ 49.4 µg/mL)

Structure (SMILES): CC[C@H](C)[C@H](N)C(=O)N[C@@H](CC(C)C)C(=O)N[C@@H](C)C(=O)N[C@@H](Cc1c[nH]c2ccccc12)C(=O)N[C@@H](CCCCN)C(=O)N[C@@H](Cc1c[nH]c2ccccc12)C(=O)N1CCC[C@H]1C(=O)N[C@@H](Cc1c[nH]c2ccccc12)C(=O)N[C@@H](Cc1c[nH]c2ccccc12)C(=O)N[C@@H](C)C(=O)N[C@@H](Cc1c[nH]c2ccccc12)C(=O)N[C@@H](CCCN=C(N)N)C(=O)N[C@@H](CCCN=C(N)N)C(N)=O [ILAWKWPWWAWRR]
MIC [11]: 25 µM (≈ 46.4 µg/mL)
MIC (Klebsiella pneumoniae): 50 µM (≈ 92.7 µg/mL)
MIC (Pseudomonas aeruginosa): 100 µM (≈ 185 µg/mL)
MIC (Salmonella typhimurium): 25 µM (≈ 46.4 µg/mL)

Structure (SMILES): CC[C@H](C)[C@H](N)C(=O)N[C@@H](CC(C)C)C(=O)N1CCC[C@H]1C(=O)N[C@H](C(=O)N[C@@H](CCCCN)C(=O)N[C@H](C(=O)N1CCC[C@H]1C(=O)N[C@H](C(=O)N[C@H](C(=O)N1CCC[C@H]1C(=O)N[C@H](C(=O)N[C@@H](CCCN=C(N)N)C(=O)N[C@@H](CCCN=C(N)N)C(N)=O)C(C)C)C(C)C)C(C)C)C(C)C)C(C)C [ILPVKVPVVPVRR]
MIC [10]: ≥ 100 µM

Second part, the compound after the results:

MIC [10]: 0.8 µM (≈ 1.34 µg/mL)
Structure (SMILES): NCCCC[C@H](NC(=O)[C@H](Cc1c[nH]c2ccccc12)NC(=O)[C@@H]1CCCN1)C(=O)N[C@@H](Cc1c[nH]c2ccccc12)C(=O)N1CCC[C@H]1C(=O)N[C@@H](Cc1c[nH]c2ccccc12)C(=O)N[C@@H](Cc1c[nH]c2ccccc12)C(=O)N1CCC[C@H]1C(=O)N[C@@H](Cc1c[nH]c2ccccc12)C(=O)N[C@@H](CCCN=C(N)N)C(=O)N[C@@H](CCCN=C(N)N)C(N)=O [PWKWPWWPWRR]

MIC [5]: ≥ 124 µM
MIC [6]: ≥ 124 µM
MIC [8]: ≥ 124 µM
MIC [9]: ≥ 124 µM
Structure (SMILES): NC(=O)[C@H](CCCN=C(N)N)NC(=O)[C@H](Cc1c[nH]c2ccccc12)NC(=O)[C@@H](N)CCCN=C(N)N [RWR]

MIC [4]: 2 µM (≈ 4.04 µg/mL)
MIC [5]: 2 µM (≈ 4.04 µg/mL)
MIC [6]: 4 µM (≈ 8.09 µg/mL)
MIC [7]: 2 µM (≈ 4.04 µg/mL)
MIC [8]: 2 µM (≈ 4.04 µg/mL)
MIC [9]: 2 µM (≈ 4.04 µg/mL)
Structure (SMILES): C[C@@H](O)[C@H](NC(=O)[C@H](CCCCN)NC(=O)[C@H](Cc1c[nH]c2ccccc12)NC(=O)[C@H](Cc1c[nH]c2ccccc12)NC(=O)[C@@H](NC(=O)[C@H](CCCCN)NC(=O)[C@@H](N)CCCCN)[C@@H](C)O)C(=O)N[C@@H](Cc1c[nH]c2ccccc12)C(=O)N[C@@H](Cc1c[nH]c2ccccc12)C(=O)N[C@H](C(=O)N[C@@H](CCCCN)C(=O)N[C@@H](Cc1c[nH]c2ccccc12)C(=O)N[C@@H](CCCCN)C(=O)N[C@@H](CCCCN)C(=O)O)[C@@H](C)O [KKTWWKTWWTKWKK]

MIC [4]: 8.3 µM (≈ 12.5 µg/mL)
MIC [5]: 16.6 µM (≈ 25 µg/mL)
MIC [6]: 4.15 µM (≈ 6.25 µg/mL)
MIC [7]: 4.15 µM (≈ 6.25 µg/mL)
MIC [8]: 8.3 µM (≈ 12.5 µg/mL)
MIC [9]: 8.3 µM (≈ 12.5 µg/mL)
Structure (SMILES): CC[C@H](C)[C@H](NC(=O)[C@H](CCCN=C(N)N)NC(=O)[C@H](CC(C)C)NC(=O)[C@H](CC(C)C)NC(=O)[C@@H](N)CCCN=C(N)N)C(=O)N[C@H](C(=O)N[C@H](C(=O)N[C@H](C(=O)N[C@@H](CCCN=C(N)N)C(=O)N[C@H](C(=O)N[C@@H](CC(C)C)C(=O)N[C@@H](CCCN=C(N)N)C(N)=O)C(C)C)[C@@H](C)CC)C(C)C)C(C)C [RLLRIVVIRVLR]

MIC [13]: 128 µM (≈ 237 µg/mL)
MIC [14]: ≥ 256 µM
Structure (SMILES): CC[C@H](C)[C@H](NC(=O)[C@@H](N)CCCCN)C(=O)N[C@@H](Cc1c[nH]c2ccccc12)C(=O)N[C@@H](Cc1ccccc1)C(=O)N[C@@H](CCC(N)=O)C(=O)N[C@@H](CC(N)=O)C(=O)N[C@@H](CCCN=C(N)N)C(=O)N[C@@H](CCCN=C(N)N)C(=O)N[C@@H](CCSC)C(=O)N[C@@H](CCCCN)C(=O)N[C@@H](Cc1c[nH]c2ccccc12)C(=O)N[C@@H](CCCCN)C(=O)N[C@@H](CCCCN)C(N)=O [KIWFQNRRMKWKK]
